The text below walks through data of PMC12473689, “Drug Metabolism and Pharmacokinetics of Oxazolo[4,5-c]quinoline Analogs as Novel Interleukin-33 Inhibitors” (Pharmaceutics, 2025).

Data set [1] is described as follows: In vitro metabolic stability in pooled human liver S9 fraction. The data set is classed as in vitro ADME. As to conditions: for remaining at 1 h, 3 µM / half-life at 3 µM: pH 7.4, HLS9 1 mg/mL, 3 µM compound; for remaining at 1 h, 3 µM: cofactors NADPH, UDPGA, PAPS, GSH, 37 °C, read-out: % remaining after 60 min; for half-life at 3 µM: with cofactors, one-phase decay fit, read-out: in vitro t½ (estimated); for microsomal CLint at 3 µM: pH 7.4, HLS9, CLint,u = k/(fu,S9 × [S9]), read-out: CLint,u (unbound intrinsic clearance). Here is the method: (§1) Metabolic stability was assessed using pooled HLS9 and MLS9 fractions. The S9 fractions (20 mg/mL) were diluted to 1 mg/mL with 0.1 M potassium phosphate buffer (pH 7.4). Stock solutions of KB-1517 and KB-1518 (10 mM in DMSO) were diluted in 50% aqueous acetonitrile to prepare working solutions (120 µM). A Tris mix buffer containing 1 M Tris-HCl (pH 7.4), 10 mM MgCl2, and 125 µg/mL alamethicin was prepared. A combined cofactor solution was prepared in 0.1 M potassium phosphate buffer (pH 7.4): 10 mM NADPH, 5 mM UDPGA, 1 mM PAPS, and 25 mM GSH.
(§2) The incubation mixture (final volume 200 µL) contained: 125 µL of deionized water, 40 µL of Tris mix buffer, 10 µL of 20 mg protein/mL S9 fraction (final concentration 1 mg protein/mL), and 5 µL of the test compound working solution (final concentration 3 µM). The final concentrations of DMSO and acetonitrile were 0.03% and 1%, respectively. The mixture was pre-incubated at 37 °C for 5 min in a shaking water bath. The reaction was initiated by adding 20 µL of the combined cofactor solution (final concentrations: 1 mM NADPH, 0.5 mM UDPGA, 0.1 mM PAPS, 2.5 mM GSH). Control incubations were performed without the cofactor mixture (replaced with buffer) and at 0 min (quenched immediately after adding cofactors). Incubations were carried out at 37 °C for 0, 15, 30, and 60 min (for stability) or 60 min (for metabolite ID). Reactions were terminated by adding 200 µL of ice-cold acetonitrile containing IS (diclofenac).
(§3) Terminated samples were sonicated (5 min), vortexed (1500 rpm, 5 min), and centrifuged (3000 rpm, 20 min, 4 °C). An aliquot (150 µL) of the supernatant was transferred to a 96-well plate for LC-MS/MS analysis as described in Section 2.6.2.
(§4) Noncompartmental analysis (NCA) was performed using PKSolver to determine pharmacokinetic parameters from the plasma concentration-time data. Parameters included: maximum plasma concentration (Cmax), time to reach Cmax (tmax), terminal elimination half-life (t1/2), area under the plasma concentration-time curve from time zero to the last measurable concentration (AUClast), area under the plasma concentration-time curve extrapolated to infinity (AUCinf), total body clearance (CL), and volume of distribution at steady state (Vss). Oral bioavailability (F) was calculated as: F(%) = (AUCinf,PO/AUCinf,IV)× (DoseIV/DosePO)×100. Due to the anomalous profile of KB-1517, AUClast was used for its F calculation, and some parameters (t½, CL, Vss for IV; AUCinf for PO) could not be reliably determined (ND). The metabolic rate constant (k) was determined by fitting the in vitro metabolic stability data to a one-phase decay equation via nonlinear regression using GraphPad Prism (Version 10, GraphPad Software, Boston, MA, USA). The in vitro t1/2 was calculated from the equation t1/2 = ln(2)/k. Subsequently, the unbound intrinsic clearance (CLint,u) was calculated as follows: CLint,u = k/(fu,S9 × [S9]), where fu,S9 is the fraction unbound in the S9 incubation and [S9] is the S9 protein concentration.
(§5) The metabolic stability of KB-1517 and KB-1518 was evaluated by incubating the compounds (3 µM) with HLS9 and MLS9 fractions (1 mg/mL) in the presence of a comprehensive set of phase I and phase II cofactors (NADPH, UDPGA, PAPS, and GSH) for up to 60 min.

The nature of data set [2]: In vitro metabolic stability in pooled mouse liver S9 fraction. The data set is classed as in vitro ADME. The following applies: male, ICR; for remaining at 1 h, 3 µM / half-life at 3 µM: pH 7.4, MLS9 1 mg/mL, 3 µM compound; for remaining at 1 h, 3 µM: cofactors NADPH, UDPGA, PAPS, GSH, 37 °C, read-out: % remaining after 60 min; for half-life at 3 µM: with cofactors, one-phase decay fit, read-out: in vitro t½ (estimated); for microsomal CLint at 3 µM: pH 7.4, MLS9, CLint,u = k/(fu,S9 × [S9]), read-out: CLint,u (unbound intrinsic clearance). The method, then: as §1, §2, §3, §4, §5

For the molecule `CN(C)CCn1c(=O)c2nc(-c3ccc(C(F)(F)F)cc3)oc2c2ccccc21` [KB-1517, 5-(2-(dimethylamino)ethyl)-2-(4-(trifluoromethyl)phenyl)oxazolo[4,5-c]quinolin-4(5H)-one], in data set [1], the share remaining at 1 h, 3 µM came out at 81.9 ± 0.7%; the half-life at 3 µM was 3.09 h; the microsomal CLint at 3 µM turned out to be 19.6 µL/min/mg. Also, in data set [2], the share remaining at 1 h, 3 µM came out at 67.2 ± 1%; the half-life at 3 µM was 3.06 h; the microsomal CLint at 3 µM was found to be 25 µL/min/mg.
For `CN(C)CCOc1nc2ccccc2c2oc(-c3ccc(C(F)(F)F)cc3)nc12` [KB-1518, N,N-dimethyl-2-((2-(4-(trifluoromethyl)phenyl)oxazolo[4,5-c]quinolin-4-yl)oxy)ethan-1-amine], in data set [1], the fraction remaining at 1 h, 3 µM amounted to 74.2 ± 2.5%; the half-life at 3 µM was 1.88 h; the microsomal CLint at 3 µM was determined as 101 µL/min/mg. In data set [2], the share remaining at 1 h, 3 µM turned out to be 57.2 ± 1.3%; the half-life at 3 µM was 1.24 h; the microsomal CLint at 3 µM is 216 µL/min/mg.
